Values of other authors in paper PMC11865562 (Scientific Reports, 2025).

Test system: P-gp

## CNC(=O)c1ccc(-c2cnc3ncc(Cc4ccc5ncccc5c4)n3n2)cc1F [Capmatinib, capmatinib]
  P-gp substrate (reported): P-gp substrate
